Literature values, collected in US20250387524A1, “METHOD AND SYSTEM FOR THE PRODUCTION OF DISINFECTION AND/OR STERILISATION SOLUTIONS” (UNIVERSITAT JAUME I, priority 2022, published 2025).

Details: EU-US approved

Compound	Minimum biocidal concentration [%]
O=CCCCC=O [Glutaraldehyde]	≥2
O=Cc1ccccc1C=O [Orto-phtalaldehyde]	0.55
